Assays:
[1] = target: recombinant human dipeptidyl peptidase IV (DPPIV) (Homo sapiens (Human), UniProt P27487); experiment: In vitro assay dipeptidyl peptidase IV IC50 (Example 21); format: biochemical
[2] = Stability of 6555 with sulfur-containing and other stabilizers, 50 mM AAPH at 80° C. for 30 mins (Tables 7-9); format: physicochemical; settings: for 6555 Remaining (%): 50 mM AAPH, 80° C., 0.5 hr, (+) mode; for 6555 Remain (%): AAPH 80° C. 30 mins
Description: The effect of specified sulfur-containing compounds and other stabilizer compounds (including non-sulfur-containing stabilizer compounds) and mixtures of sulfur-containing compounds and non-sulfur-containing stabilizer compounds with the boronic acid compound 6555 (structure shown above) at various pH values.

recombinant human dipeptidyl peptidase IV (DPPIV), sequence (P27487 whole entry): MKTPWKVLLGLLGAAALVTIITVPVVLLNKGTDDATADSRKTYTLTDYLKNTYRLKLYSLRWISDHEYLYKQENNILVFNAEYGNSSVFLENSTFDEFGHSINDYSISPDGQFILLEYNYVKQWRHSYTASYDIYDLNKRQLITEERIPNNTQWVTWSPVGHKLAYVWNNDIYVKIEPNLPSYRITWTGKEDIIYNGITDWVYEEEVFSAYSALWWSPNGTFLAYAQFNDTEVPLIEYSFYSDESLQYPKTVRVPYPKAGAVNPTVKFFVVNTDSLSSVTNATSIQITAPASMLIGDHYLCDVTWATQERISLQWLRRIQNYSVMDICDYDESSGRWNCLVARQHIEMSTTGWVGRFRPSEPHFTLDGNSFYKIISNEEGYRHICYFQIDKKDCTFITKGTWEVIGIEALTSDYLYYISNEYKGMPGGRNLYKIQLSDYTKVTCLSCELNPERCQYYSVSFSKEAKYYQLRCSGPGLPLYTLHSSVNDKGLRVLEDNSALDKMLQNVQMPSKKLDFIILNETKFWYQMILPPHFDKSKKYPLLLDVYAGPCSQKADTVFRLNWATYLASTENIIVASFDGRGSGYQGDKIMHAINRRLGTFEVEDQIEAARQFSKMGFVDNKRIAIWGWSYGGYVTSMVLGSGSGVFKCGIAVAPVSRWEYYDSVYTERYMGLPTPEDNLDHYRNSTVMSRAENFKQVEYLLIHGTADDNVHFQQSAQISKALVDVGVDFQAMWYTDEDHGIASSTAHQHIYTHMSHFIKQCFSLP

C[C@@H](NC(=O)c1ccc(CNC(=O)CN2CCN(CC(=O)O)CCN(CC(=O)O)CCN(CC(=O)O)CC2)cc1)C(=O)N1CCC[C@H]1B(O)O [compound 6555, DOTA-aminomethyl-Bz-D-Ala-boroPro]
IC50 [1]: > 100 µM
6555 Remaining (%) ([2]; NAM 5 mM, sodium metabisulfite 5 mM, pH 4.3): 88.8%
6555 Remaining (%) ([2]; NAM 25 mM, pH 4.0): 85.9%
6555 Remaining (%) ([2]; no stabilizer, pH 4.6): 55.8%
6555 Remaining (%) ([2]; sodium ascorbate 2.5 mM, sodium gentisate 1 mM, Acetone sodium bisulfite (2.5 mM), pH 4.6): 73.1%
6555 Remaining (%) ([2]; sodium ascorbate 2.5 mM, sodium gentisate 1 mM, Acetone sodium bisulfite (25 mM), pH 4.6): 94.0%
6555 Remaining (%) ([2]; sodium ascorbate 2.5 mM, sodium gentisate 1 mM, D-mannitol (25 mM), pH 4.5): 15.5%
6555 Remaining (%) ([2]; sodium ascorbate 2.5 mM, sodium gentisate 1 mM, Disodium hydrosulfite (25 mM), pH 4.3): 94.1%
6555 Remaining (%) ([2]; sodium ascorbate 2.5 mM, sodium gentisate 1 mM, MSM(dimethyl sulfone) (25 mM), pH 4.5): 8.2%
6555 Remaining (%) ([2]; sodium ascorbate 2.5 mM, sodium gentisate 1 mM, N-Acetyl-L-phenylalanine (25 mM), pH 4.0): 20.1%
6555 Remaining (%) ([2]; sodium ascorbate 2.5 mM, sodium gentisate 1 mM, N-Acetyl-L-tyrosine (25 mM), pH 4.0): 13.6%
6555 Remaining (%) ([2]; sodium ascorbate 2.5 mM, sodium gentisate 1 mM, NAC (25 mM), pH 4.1): 31.4%
6555 Remaining (%) ([2]; sodium ascorbate 2.5 mM, sodium gentisate 1 mM, NAM 2.5 mM, sodium metabisulfite 2.5 mM, pH 4.5): 94.8%
6555 Remaining (%) ([2]; sodium ascorbate 2.5 mM, sodium gentisate 1 mM, NAM 2.5 mM, pH 4.5): 53.3%
6555 Remaining (%) ([2]; sodium ascorbate 2.5 mM, sodium gentisate 1 mM, NAM 10 mM, sodium metabisulfite 2.5 mM, pH 4.0): 93.2%
6555 Remaining (%) ([2]; sodium ascorbate 2.5 mM, sodium gentisate 1 mM, NAM 25 mM, sodium metabisulfite 2.5 mM, pH 4.0): 92.2%
6555 Remaining (%) ([2]; sodium ascorbate 2.5 mM, sodium gentisate 1 mM, NAM 25 mM, pH 4.0): 90.8%
6555 Remaining (%) ([2]; sodium ascorbate 2.5 mM, sodium gentisate 1 mM, Potassium metabisulfite (2.5 mM), pH 4.4): 93.7%
6555 Remaining (%) ([2]; sodium ascorbate 2.5 mM, sodium gentisate 1 mM, Potassium metabisulfite (25 mM), pH 4.5): 94.1%
6555 Remaining (%) ([2]; sodium ascorbate 2.5 mM, sodium gentisate 1 mM, Sodium L-Glutamate monohydrate (concentration cut off), pH 4.7): 8.2%
6555 Remaining (%) ([2]; sodium ascorbate 2.5 mM, sodium gentisate 1 mM, Sodium formaldehydesulfoxylate di (concentration cut off), pH 4.4): 91.7%
6555 Remaining (%) ([2]; sodium ascorbate 2.5 mM, sodium gentisate 1 mM, Sodium formaldehydesulfoxylate di (concentration cut off, second entry), pH 4.5): 58.0%
6555 Remaining (%) ([2]; sodium ascorbate 2.5 mM, sodium gentisate 1 mM, Sodium sulfite (2.5 mM), pH 4.5): 67.9%
6555 Remaining (%) ([2]; sodium ascorbate 2.5 mM, sodium gentisate 1 mM, Sodium sulfite (5 mM), pH 4.6): 90.3%
6555 Remaining (%) ([2]; sodium ascorbate 2.5 mM, sodium gentisate 1 mM, Sodium sulfite (10 mM), pH 4.8): 93.8%
6555 Remaining (%) ([2]; sodium ascorbate 2.5 mM, sodium gentisate 1 mM, Sodium sulfite (25 mM), pH 5.1): 94.1%
6555 Remaining (%) ([2]; sodium ascorbate 2.5 mM, sodium gentisate 1 mM, Thiourea (25 mM), pH 4.5): 84.1%
6555 Remaining (%) ([2]; sodium ascorbate 2.5 mM, sodium gentisate 1 mM, disodium hydrosulfite 1 mM, pH 4.5): 47.4%
6555 Remaining (%) ([2]; sodium ascorbate 2.5 mM, sodium gentisate 1 mM, disodium hydrosulfite 2.5 mM, pH 4.4): 91.7%
6555 Remaining (%) ([2]; sodium ascorbate 2.5 mM, sodium gentisate 1 mM, disodium hydrosulfite 5.0 mM, pH 4.5): 94.3%
6555 Remaining (%) ([2]; sodium ascorbate 2.5 mM, sodium gentisate 1 mM, disodium hydrosulfite 10.0 mM, pH 4.5): 94.1%
6555 Remaining (%) ([2]; sodium ascorbate 2.5 mM, sodium gentisate 1 mM, disodium hydrosulfite 40.0 mM, pH 4.0): 94.6%
6555 Remaining (%) ([2]; sodium ascorbate 2.5 mM, sodium gentisate 1 mM, sodium metabisulfite 1 mM, pH 4.5): 71.1%
6555 Remaining (%) ([2]; sodium ascorbate 2.5 mM, sodium gentisate 1 mM, sodium metabisulfite 2.5 mM, pH 4.5): 93.4%
6555 Remaining (%) ([2]; sodium ascorbate 2.5 mM, sodium gentisate 1 mM, sodium metabisulfite 25 mM, pH 4.4): 93.8%
6555 Remaining (%) ([2]; sodium ascorbate 2.5 mM, sodium gentisate 1 mM, pH 4.6): 30.8%
6555 Remaining (%) ([2]; sodium ascorbate 2.5 mM, sodium gentisate 1 mM, pH 5.1): 16.7%
6555 Remaining (%) ([2]; sodium ascorbate 5 mM, sodium gentisate 2 mM, NAM 5 mM, disodium hydrosulfite 5 mM, pH 4.5): 95.7%
6555 Remaining (%) ([2]; sodium ascorbate 5 mM, sodium gentisate 2 mM, NAM 5 mM, sodium metabisulfite 5 mM, pH 4.5): 95.8%
6555 Remaining (%) ([2]; sodium ascorbate 5 mM, sodium gentisate 2 mM, NAM 5 mM, pH 4.5): 66.5%
6555 Remaining (%) ([2]; sodium ascorbate 5 mM, sodium gentisate 2 mM, sodium metabisulfite 5 mM, disodium hydrosulfite 5 mM, pH 4.4): 95.3%
6555 Remaining (%) ([2]; sodium ascorbate 5 mM, sodium gentisate 2 mM, sodium metabisulfite 5 mM, pH 4.5): 95.6%
6555 Remain (%) ([2]; Sodium ascorbate (2.5 mM) +, Sodium gentisate (1 mM) +, Stabilizer (2.5 mM) Sodium sulfite, pH 5.1, SID 90517): 94.1%
6555 Remain (%) ([2]; ascorbate (2.5 mM) +, gentisate (1 mM) +, Sodium hydrosulfite 2.5 mM, pH 4.4, SID 90537): 91.7%
6555 Remain (%) ([2]; ascorbate (2.5 mM) +, gentisate (1 mM) +, Sodium hydrosulfite 5.0 mM, pH 4.5, SID 90542): 94.3%
6555 Remain (%) ([2]; ascorbate (2.5 mM) +, gentisate (1 mM) +, Sodium hydrosulfite 10.0 mM, pH 4.5, SID 90532): 94.1%
6555 Remain (%) ([2]; ascorbate (2.5 mM) +, gentisate (1 mM) +, Sodium hydrosulfite 25.0 mM, pH 4.3, SID 90539): 94.1%
6555 Remain (%) ([2]; ascorbate (2.5 mM) +, gentisate (1 mM) +, Sodium hydrosulfite 40.00 mM, pH 4.0, SID 90538): 94.6%

Source: patent US20240207292A1, “BORONIC ACID COMPOUNDS, COMPOSITIONS AND METHODS” (Trustees of Tufts College, priority 2021, published 2024)
